From patent publication US20220096516A1, “OLIGONUCLEOTIDE MOLECULE AND APPLICATION THEREOF IN TUMOR THERAPY” (Ractigen Therapeutics, priority 2019, published 2022) come the findings set out here.

d = 2'-deoxy (DNA); r = 2'-OH (RNA)

The subject of this data set is LHPP gene. As to the kind of experiment: High-throughput screening of saRNAs targeting LHPP promoter: LHPP mRNA by one-step RT-qPCR in Huh7 cells. The data set is classed as cell-based, human. The settings on record: 10 nM saRNA, 72 hours, relative to control (Mock). The gist of the method:
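Huh7 cells were transfected with 10 nM saRNA using RNAiMax and lysed 72 h later. LHPP mRNA was quantified by one-step RT-qPCR in triplicate wells. Expression was normalised to HPRT1 and TBP and given as fold change versus mock-transfected cells.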
Turning to “RAG7-106: saRNA duplex; sense GAAAGCUUCCGAAAAGGACTT (SEQ ID NO: 150), antisense GUCCUUUUCGGAAGCUUUCTT (SEQ ID NO: 314) (sugars from the 5' end r19 d2, backbone not given here)”, the “Fold of changes in relative LHPP mRNA expression level” value was determined as 1.12 fold and the “Fold of changes in relative LHPP mRNA expression level (log2)” value turned out to be 0.17 log2.
For “RAG7-692: saRNA duplex; sense GUCCUAUGCAUCCUCAUCUTT (SEQ ID NO: 124), antisense AGAUGAGGAUGCAUAGGACTT (SEQ ID NO: 288) (sugars from the 5' end r19 d2, backbone not given here)”, in that order: 1.17 fold and 0.22 log2.
For the substance “RAG7-894: saRNA duplex; sense UAUGUUGGACCAGAAGUAATT (SEQ ID NO: 37), antisense UUACUUCUGGUCCAACAUATT (SEQ ID NO: 201) (sugars from the 5' end r19 d2, backbone not given here)”, the “Fold of changes in relative LHPP mRNA expression level” value came to 1.45 fold and the “Fold of changes in relative LHPP mRNA expression level (log2)” value is 0.54 log2.
For “RAG7-33: saRNA duplex; sense UUUGCACCCGGUCUUCUUGTT (SEQ ID NO: 119), antisense CAAGAAGACCGGGUGCAAATT (SEQ ID NO: 283) (sugars from the 5' end r19 d2, backbone not given here)”, in that order: 1.18 fold and 0.24 log2.
For “RAG7-902: saRNA duplex; sense CUCAAAGCUAUGUUGGACCTT (SEQ ID NO: 50), antisense GGUCCAACAUAGCUUUGAGTT (SEQ ID NO: 214) (sugars from the 5' end r19 d2, backbone not given here)”, in that order: 1.38 fold and 0.46 log2.
For “RAG7-720: saRNA duplex; sense UGAUAGUCCCGUUUUCUUCTT (SEQ ID NO: 62), antisense GAAGAAAACGGGACUAUCATT (SEQ ID NO: 226) (sugars from the 5' end r19 d2, backbone not given here)”, in that order: 1.33 fold and 0.41 log2.
Turning to “RAG7-92: saRNA duplex; sense AGGACACCGUUUCAGGGGCTT (SEQ ID NO: 155), antisense GCCCCUGAAACGGUGUCCUTT (SEQ ID NO: 319) (sugars from the 5' end r19 d2, backbone not given here)”, the “Fold of changes in relative LHPP mRNA expression level” value was 1.11 fold and the “Fold of changes in relative LHPP mRNA expression level (log2)” value is given as 0.15 log2.
For “RAG7-190: saRNA duplex; sense CCUUCUUGUCUCAAUUUGCTT (SEQ ID NO: 130), antisense GCAAAUUGAGACAAGAAGGTT (SEQ ID NO: 294) (sugars from the 5' end r19 d2, backbone not given here)”, in that order: 1.16 fold and 0.22 log2.
For “RAG7-778: saRNA duplex; sense UGUAGCAUCGAGUGGUAUUTT (SEQ ID NO: 70), antisense AAUACCACUCGAUGCUACATT (SEQ ID NO: 234) (sugars from the 5' end r19 d2, backbone not given here)”, in that order: 1.29 fold and 0.37 log2.
For “RAG7-830: saRNA duplex; sense AUUGAGGAAACUCCUCCCUTT (SEQ ID NO: 36), antisense AGGGAGGAGUUUCCUCAAUTT (SEQ ID NO: 200) (sugars from the 5' end r19 d2, backbone not given here)”, in that order: 1.45 fold and 0.54 log2.
As for “RAG7-111: saRNA duplex; sense GGGAAGAAAGCUUCCGAAATT (SEQ ID NO: 117), antisense UUUCGGAAGCUUUCUUCCCTT (SEQ ID NO: 281) (sugars from the 5' end r19 d2, backbone not given here)”, the “Fold of changes in relative LHPP mRNA expression level” value was 1.18 fold and the “Fold of changes in relative LHPP mRNA expression level (log2)” value is reported as 0.24 log2.
For “RAG7-851: saRNA duplex; sense CUUGAAAGGUUCCGAGGGGTT (SEQ ID NO: 163), antisense CCCCUCGGAACCUUUCAAGTT (SEQ ID NO: 327) (sugars from the 5' end r19 d2, backbone not given here)”, in that order: 1.10 fold and 0.14 log2.
For “RAG7-696: saRNA duplex; sense CCAGGUCCUAUGCAUCCUCTT (SEQ ID NO: 17), antisense GAGGAUGCAUAGGACCUGGTT (SEQ ID NO: 181) (sugars from the 5' end r19 d2, backbone not given here)”, in that order: 1.58 fold and 0.66 log2.
In the case of “RAG7-162: saRNA duplex; sense UUCUUAGGGACUUGUUUUCTT (SEQ ID NO: 19), antisense GAAAACAAGUCCCUAAGAATT (SEQ ID NO: 183) (sugars from the 5' end r19 d2, backbone not given here)”, the “Fold of changes in relative LHPP mRNA expression level” value is listed as 1.56 fold and the “Fold of changes in relative LHPP mRNA expression level (log2)” value is given as 0.64 log2.
“RAG7-691: saRNA duplex; sense UCCUAUGCAUCCUCAUCUATT (SEQ ID NO: 30), antisense UAGAUGAGGAUGCAUAGGATT (SEQ ID NO: 194) (sugars from the 5' end r19 d2, backbone not given here)”: the “Fold of changes in relative LHPP mRNA expression level” value is 1.50 fold and the “Fold of changes in relative LHPP mRNA expression level (log2)” value stood at 0.58 log2.
For “RAG7-180: saRNA duplex; sense UCAAUUUGCCUUUGACCUUTT (SEQ ID NO: 58), antisense AAGGUCAAAGGCAAAUUGATT (SEQ ID NO: 222) (sugars from the 5' end r19 d2, backbone not given here)”, in that order: 1.35 fold and 0.43 log2.
For “RAG7-175: saRNA duplex; sense UUGCCUUUGACCUUUCUUATT (SEQ ID NO: 60), antisense UAAGAAAGGUCAAAGGCAATT (SEQ ID NO: 224) (sugars from the 5' end r19 d2, backbone not given here)”, in that order: 1.34 fold and 0.42 log2.
For “RAG7-196: saRNA duplex; sense CAGGUGCCUUCUUGUCUCATT (SEQ ID NO: 38), antisense UGAGACAAGAAGGCACCUGTT (SEQ ID NO: 202) (sugars from the 5' end r19 d2, backbone not given here)”, in that order: 1.45 fold and 0.54 log2.
